Source: patent EP4692072A1, “PHOTOCHROMIC COMPOUND, PROPARGYL ALCOHOL COMPOUND, CURABLE COMPOSITION, OPTICAL ARTICLE, LENS, AND SPECTACLES” (TOKUYAMA CORPORATION, priority 2023, dated 2024)

Tests used:
Type in all cases: physicochemical
[1] = Photochromic properties of photochromic cured product prepared by kneading method; settings: 0.106 mmol per 100 g monomer; for A23: 1 mm cured product, 23°C color optical density ε(300)-ε(0); for Maximum absorption wavelength: 1 mm thiourethane cured product, after color development
Protocol: (§1) • [1] Maximum Absorption Wavelength (λmax): The maximum absorption wavelength after color development, measured using a spectrophotometer (instantaneous multichannel photodetector MCPD3000) manufactured by Otsuka Electronics Co., Ltd. was used as an indicator for the color tone during the color development. • [2] 23°C Color Optical Density (A23): A difference between an absorbancy measured after light irradiation at 23°C for 300 seconds {ε(300)} and an absorbancy without light irradiation ε(0) at the maximum absorption wavelength was used as an indicator for the color optical density. […] 23°C color fading half-life [τ1/2 (sec.)]: A time required for the absorbancy of the sample at the maximum absorption wavelength to decrease to 1/2 of {ε(300)-ε(0)} when the light irradiation was terminated after the light irradiation at 23°C for 300 seconds, was used as an indicator for the color fading speed. The shorter this time, the higher the color fading speed. • [4] Residual rate (A120/A0×100): The obtained photochromic plastic lens was subjected to accelerated deterioration using a xenon weather meter X25 manufactured by Suga Test Instruments Co., Ltd. for 120 hours. Subsequently, the color optical density was evaluated before and after the test, then a color optical density before the test (A0) and a color optical density after the test (A120) were measured, and a ratio (A120/A0) was defined as a residual rate. The residual rate was used as an indicator for a color developing durability. The higher the residual rate, the higher the color developing durability. The results of Examples 26, 50, and Comparative Examples 1 to 8 are summarized in Table 1, and the results of Examples 27 to 49 are summarized in Tables 2 and 3.
(§2) First, the photochromic compound obtained in Example 1, additives, and a polymerizable compound were mixed to obtain a curable composition.
(§3) As the polymerizable compound, a combination of the following polymerizable monomers was used. • 1,3-bis(isocyanatomethyl)cyclohexane: 36.7 parts by mass Pentaerythritol tetrakis(3-mercaptopropionate): 39.4 parts by mass • Polyoxyethylene polyoxypropylene lauryl ether (Wonder Surf 140 manufactured by Aoki Oil Industrial Co., Ltd.): 17.4 parts by mass • 1-decanethiol: 2.8 parts by mass • RX-1 adjusted according to the method described in Patent Document 13: 3.8 parts by mass
(§4) Note that the photochromic compound was added to the curable composition so that the amount of the photochromic compound was 0.106 mmol based on 100 g of the total amount of the polymerizable monomer. The following additives were used: Dimethyltin dichloride • : 0.05 part by mass • Irganox 245: 0.1 part by mass • 2-ethylhexyl 4-methoxycinnamate: 0.6 part by mass
(§5) The prepared curable composition was thoroughly defoamed, then injected into a glass mold having a 1 mm gap, and polymerized by cast polymerization. The polymerization was carried out in an air furnace while gradually raising the temperature from 27°C to 120°C over 18 hours. After the polymerization, the cured product was removed from the glass mold to obtain a photochromic cured product having a thickness of 1 mm. The obtained photochromic cured product was evaluated in the same manner as in Example 26.
(§6) (Examples 85 to 99, and Comparative Example 14 to 18) Photochromic cured products were prepared using photochromic compounds presented in Tables 6 and 7 in the same manner as in Example 84. The results of Examples 84 and 85 and Comparative Examples 14 to 18 are summarized in Table 6, and the results of Examples 86 to 99 are summarized in Table 7.

[2] = Accelerated deterioration (xenon weather meter X25, 120 hours) of photochromic cured product prepared by kneading method; settings: 1 mm cured product, 0.106 mmol per 100 g monomer, A120/A0×100 after 120 hours xenon weather meter
Protocol: as §1, §2, §3, §4, §5, §6

[3] = Accelerated deterioration (xenon weather meter X25, 120 hours) of binder sheet prepared by binder method; settings: 0.25 mmol per 100 parts by mass resin, A120/A0×100 after 120 hours xenon weather meter
Protocol: as §1
(§7) A binder sheet was prepared using the following method. The binder sheet consisted of a first optical sheet, a first adhesive layer, a photochromic layer, a second adhesive layer, and a second optical sheet, which are laminated in this order. The first optical sheet and the second optical sheet were made of a polycarbonate sheet with a thickness of 400 µm.
(§8) A 2L four-necked flask equipped with agitation blades, a cooling tube, a thermometer, and a nitrogen gas introducing tube was charged with 315 parts by mass of polycarbonate diol having a number-average molecular weight of 1000, 100 parts by mass of isophorone diisocyanate, and 72 parts by mass of toluene, and the mixture was reacted under nitrogen atmosphere at 100°C for 7 hours to synthesize a urethane prepolymer having an isocyanate group on its terminal. After completion of the urethane prepolymer reaction, the reaction liquid was cooled to approximately 0°C, then dissolved in 205 parts by mass of t-butyl alcohol and 382 parts by mass of diethyl ketone, and then the liquid temperature was maintained at 0°C. Subsequently, into this reaction liquid, a mixture of 21.3 parts by mass of bis-(4-aminocyclohexyl)methane as a chain extender and 20 parts by mass of diethyl ketone was dripped over within 30 minutes, and the mixture was reacted at 0°C for 1 hour. Then, into the mixture, 8.1 parts by mass of 1,2,2,6,6-pentamethyl-4-aminopiperidine was dripped, and the mixture was reacted at 0°C for 1 hour to obtain a diethyl ketone solution of a terminal non-reactive urethaneurea resin.
(§9) To 100 parts by mass of the obtained terminal non-reactive urethaneurea resin solution, the photochromic compound in Example 1 (represented by formula (28) above), 6.3 parts by mass of 4,4'-methylenebis(cyclohexyl isocyanate) isomer mixture (polyisocyanate compound), furthermore 0.4 part by mass of ethylene bis(oxyethylene)bis[3-(5-tert-butyl-4-hydroxy-m-tolyl)propionate] as an antioxidant, and 0.06 part by mass of DOW CORNING TORAY L-7001 as a surfactant were added, and the mixture was stirred and mixed at room temperature to obtain a photochromic layer forming composition. […]

[4] = Photochromic properties of binder sheet (photochromic layer prepared by binder method); settings: 0.25 mmol per 100 parts by mass resin; for A23: 23°C color optical density ε(300)-ε(0); for Maximum absorption wavelength: urethaneurea resin binder sheet, after color development
Protocol: as §1, §7, §8, §9

Structure (SMILES) | A23 [1] | Maximum absorption wavelength [1] [nm] | Residual rate [2] [%] | also measured
CCCc1ccc(C2(c3ccc(N(C)c4ccccc4)cc3)C=Cc3c4c(c5cc(Sc6c(C)cccc6C)c(OC)cc5c3O2)-c2ccccc2C42CC(C)(C)CC(C)(C)C2)cc1 (stereo not drawn) [Example 5] | 0.56 - | 511 | 75 | A23 ([1]; listed as Formula (51)): 0.69 -; Maximum absorption wavelength ([1]; listed as Formula (51)): 598 nm
CCCC1(CCC)c2ccccc2-c2c1c1c(c3cc(OC)c(-c4ccc(OC)cc4OC)cc23)OC(c2ccc(N(C)c3ccccc3)cc2)(c2ccc(OC)c(F)c2)C=C1 (stereo not drawn) [Example 7] | 0.75 - | 499 | 68 | A23 ([1]; listed as Formula (55)): 0.99 -; Maximum absorption wavelength ([1]; listed as Formula (55)): 610 nm
CCCCC1(CCCC)c2cc(-c3ccc(OC(C)C)cc3)ccc2-c2c1c1c(c3cc(OC)ccc23)OC(c2ccc(N(C)c3ccccc3)cc2)(c2ccc(OC)c(F)c2)C=C1 (stereo not drawn) [Example 21] | 0.62 - | 490 | 68 | A23 ([1]; listed as Formula (83)): 1.25 -; Maximum absorption wavelength ([1]; listed as Formula (83)): 616 nm
CCCC1(CCC)c2ccccc2-c2c1c1c(c3cc(OC)c(-c4ccc(N(C)c5ccccc5)cc4)cc23)OC(c2ccc(C)cc2)(c2ccc(N(C)c3ccccc3)cc2)C=C1 (stereo not drawn) [Example 24] | 1.32 - | 505 | 65 | A23 ([1]; listed as Formula (86)): 1.31 -; Maximum absorption wavelength ([1]; listed as Formula (86)): 607 nm
COc1ccc(N(C)c2ccc(C3(c4ccc(CCO[Si](C)(C)CC[Si](O[Si](C)(C)C)(O[Si](C)(C)C)O[Si](C)(C)C)cc4)C=Cc4c5c(c6cc(N(C)c7ccccc7)c(OC)cc6c4O3)-c3ccc(C(F)(F)F)cc3C53CCC(C)(C)CC3)cc2)cc1 (stereo not drawn) [Example 60] | – | – | – | Residual rate [3]: 88%; Residual rate ([3]; listed as Formula (121)): 89%; A23 [4]: 0.84 -; A23 ([4]; listed as Formula (121)): 0.87 -; Maximum absorption wavelength [4]: 524 nm; Maximum absorption wavelength ([4]; listed as Formula (121)): 582 nm
CCC1(CC)CCC2(CC1)c1cc(OC(F)(F)F)ccc1-c1c2c2c(c3cc(OC)ccc13)OC(c1ccc(N(C)c3ccccc3)cc1)(c1ccc(OC)c(C)c1)C=C2 (stereo not drawn) [Example 16] | 0.47 - | 475 | 64 | A23 ([1]; listed as Formula (77)): 0.86 -; Maximum absorption wavelength ([1]; listed as Formula (77)): 593 nm
COCCOCCOCCOCCC1(CCOCCOCCOCCOC)c2cc(C(F)(F)F)ccc2-c2c1c1c(c3cc(OC)c(OC)cc23)OC(c2ccc(OC)cc2)(c2ccc(N(C)c3ccccc3)cc2)C=C1 (stereo not drawn) [Example 51] | 0.46 - | 486 | 68 | A23 ([1]; listed as Formula (89)): 0.45 -; Maximum absorption wavelength ([1]; listed as Formula (89)): 612 nm
COCCCCC1(CCCCOC)c2ccccc2-c2c1c1c(c3cc(-c4ccc(OC)cc4OC)c(OC)cc23)OC(c2ccc(N(C)c3ccccc3)cc2)(c2ccc3c(c2)CCO3)C=C1 (stereo not drawn) [Example 62] | 1.02 - | 479 | 67 | A23 ([1]; listed as Formula (124)): 1.11 -; Maximum absorption wavelength ([1]; listed as Formula (124)): 594 nm
CCCC1(CCC)c2cc(OC)ccc2-c2c1c1c(c3cc(OC)ccc23)OC(c2ccc(OC)cc2)(c2ccc(N(C)c3ccccc3)cc2)C=C1 (stereo not drawn) [Example 3] | 0.59 - | 472 | 61 | A23 ([1]; listed as Formula (46)): 1.16 -; Maximum absorption wavelength ([1]; listed as Formula (46)): 619 nm
COCCOCCC1(CCOCCOC)c2cc(C)ccc2-c2c1c1c(c3cc(C)ccc23)OC(c2ccc(N(C)c3ccc(F)cc3)cc2)(c2ccc(OC)c(OC)c2)C=C1 (stereo not drawn) [Example 8] | 0.51 - | 476 | 68 | A23 ([1]; listed as Formula (57)): 1.24 -; Maximum absorption wavelength ([1]; listed as Formula (57)): 604 nm
COCCN(c1ccccc1)c1ccc(C2(c3ccc4c(c3)OCCO4)C=Cc3c4c(c5cc6c(cc5c3O2)SC(C)(C)O6)-c2ccccc2C42CCC3(CCCCC3)CC2)cc1 (stereo not drawn) [Example 14] | 0.59 - | 496 | 71 | A23 ([1]; listed as Formula (71)): 0.65 -; Maximum absorption wavelength ([1]; listed as Formula (71)): 590 nm; Residual rate ([2]; listed as Formula (71)): 70%
